Laboratory results as given in ChEMBL document CHEMBL4689842, “EUbOPEN Chemogenomics Library wave 1” (2021).

How the values were obtained:
Type in all cases: toxicity, cell-based
HEK-293T = assay: Incucyte cell viability with HEK293T; settings: human, 10 µM, compound concentration 10 uM
U2OS = assay: Incucyte cell viability with U2OS; settings: human, 10 µM, compound concentration 10 uM
Fibroblast = assay: Incucyte cell viability with human fibroblast; settings: 10 µM, compound concentration 10 uM
[1] = 0 h, replicate number 1, timepoint 0 hours
[2] = 0 h, replicate number 2, timepoint 0 hours
[3] = 6 h, replicate number 1, timepoint 6 hours
[4] = 6 h, replicate number 2, timepoint 6 hours
[5] = 12 h, replicate number 1, timepoint 12 hours
[6] = 18 h, replicate number 1, timepoint 18 hours
[7] = 24 h, replicate number 1, timepoint 24 hours
[8] = 12 h, replicate number 2, timepoint 12 hours
[9] = 18 h, replicate number 2, timepoint 18 hours
[10] = 24 h, replicate number 2, timepoint 24 hours
Also: filed as whole numbers so only -1 and 0 and 1 occur.

Compound | Growth Rate (HEK-293T; [1]) | Growth Rate (HEK-293T; [3]) | Growth Rate (HEK-293T; [5]) | Growth Rate (HEK-293T; [6]) | Growth Rate (HEK-293T; [7]) | Growth Rate (U2OS; [5]) | Growth Rate (U2OS; [6]) | Growth Rate (U2OS; [7]) | Growth Rate (Fibroblast; [1]) | Growth Rate (Fibroblast; [3]) | Growth Rate (Fibroblast; [8]) | Growth Rate (Fibroblast; [6]) | Growth Rate (Fibroblast; [7]) | Growth Rate (U2OS; [3]) | Growth Rate (U2OS; [9]) | Growth Rate (Fibroblast; [4]) | Growth Rate (Fibroblast; [9]) | Growth Rate (Fibroblast; [10]) | Growth Rate (HEK-293T; [10]) | Growth Rate (Fibroblast; [5]) | further results
COc1cc(OC)c(NC(=O)c2ccc(Cc3cc4c(cc3C)C(C)(C)CCC4(C)C)o2)c(OC)c1 | 1 | 0 | 0 | 0 | 0 | 1 | 1 | 0 | 0 | 0 | 1 | 1 | 1 | – | – | – | – | – | – | – | Growth Rate (HEK-293T; [2]): 0; Growth Rate (HEK-293T; [4]): 1; Growth Rate (U2OS; [1]): 0; Growth Rate (U2OS; [4]): 1
COc1cccc(-c2c(C)n(Cc3c(F)cccc3C(F)(F)F)c(=O)n(C[C@H](NCCCC(=O)[O-])c3ccccc3)c2=O)c1F.[Na+] [ELAGOLIX SODIUM] | 0 | 1 | 1 | 1 | 1 | 0 | 0 | 0 | 0 | – | 0 | – | – | 0 | 1 | 0 | 0 | 0 | – | – | Growth Rate (HEK-293T; [8]): 0; Growth Rate (U2OS; [2]): 1; Growth Rate (Fibroblast; [2]): 1
CCCOc1ccn2c(C(C)=O)cc(-c3cccc(OC)c3)c2c1 | 0 | – | – | – | – | 1 | 1 | 1 | 0 | – | 1 | – | 1 | 0 | – | 0 | 0 | – | 1 | – | Growth Rate (U2OS; [1]): 0
COc1ncc(F)cc1CNc1ccc(Cc2c[nH]c3ncc(C)cc23)c(F)n1 [PLX-5622] | 0 | 1 | 1 | 1 | 1 | 0 | 0 | 0 | – | 1 | 0 | 0 | 0 | 0 | – | 0 | 1 | – | 0 | 1 | Growth Rate (HEK-293T; [2]): 1; Growth Rate (U2OS; [2]): 0; Growth Rate (Fibroblast; [2]): 1
CCN1CCC[C@H]1CNC(=O)c1c(OC)ccc(Br)c1OC [REMOXIPRIDE] | 0 | 1 | 1 | 1 | 1 | 0 | 0 | 0 | 0 | – | 0 | 1 | 1 | – | 1 | 0 | 0 | 0 | – | – | Growth Rate (U2OS; [4]): 1; Growth Rate (U2OS; [8]): 1; Growth Rate (U2OS; [10]): 1
CCN(Cc1ccc(Cl)cc1)c1ncc(C(=O)NCCCN2CCCC2=O)c(NC2CCCC2)n1 | 0 | – | – | – | – | 1 | 1 | 1 | – | 1 | 0 | 1 | 1 | 1 | – | 0 | – | – | – | 1 | Growth Rate (U2OS; [2]): 0; Growth Rate (Fibroblast; [2]): 0
Cn1cc(Cl)c2c(Oc3c(F)cc(Nc4cc(Cl)nc(N)n4)cc3F)ccnc21 [BAY-4900] | 0 | – | – | 1 | 1 | 1 | 0 | 1 | 0 | – | 1 | – | 1 | 1 | 1 | 0 | 1 | – | 0 | – | Growth Rate (HEK-293T; [4]): 0; Growth Rate (HEK-293T; [8]): 0; Growth Rate (HEK-293T; [9]): 0; Growth Rate (U2OS; [1]): 1; Growth Rate (U2OS; [2]): 0
CCCCN(Cc1ccccc1)C(=O)c1ccc(S(=O)(=O)Nc2ccccc2)cc1 | 0 | 1 | – | – | – | 1 | 1 | 1 | 0 | – | 0 | 1 | 0 | 1 | 0 | 0 | 0 | 1 | 1 | 1 | Growth Rate (HEK-293T; [4]): 0; Growth Rate (HEK-293T; [8]): 1; Growth Rate (U2OS; [10]): 0; Growth Rate (Fibroblast; [2]): 1
CC(C)(O)c1cncc(-c2nc3ccc(F)cc3n2C2CC2)c1 [MSD-CYP11B2] | 0 | – | 0 | 0 | 0 | 0 | 0 | 1 | – | 1 | – | 1 | – | 0 | 1 | 0 | 0 | 1 | – | 1 | Growth Rate (HEK-293T; [2]): 1; Growth Rate (HEK-293T; [9]): 1; Growth Rate (U2OS; [1]): 0; Growth Rate (U2OS; [4]): 1; Growth Rate (U2OS; [8]): 1
C/C(=N\NC(=O)[C@@H]1C(=O)NC[C@H]1c1ccccc1)c1cccc(Br)c1 | 1 | 0 | 0 | 0 | 0 | 1 | 0 | 0 | 1 | 0 | – | 0 | 1 | 0 | – | – | – | 0 | – | 0 | Growth Rate (HEK-293T; [2]): 0; Growth Rate (U2OS; [1]): 0; Growth Rate (U2OS; [8]): 0
CC(C)(Cc1ccccc1)NCC(O)c1ccc(O)c(NS(C)(=O)=O)c1.Cl (stereo not drawn) [ZINTEROL HYDROCHLORIDE] | 0 | 1 | 1 | 1 | 1 | 1 | 0 | 1 | – | – | 1 | – | – | 0 | 1 | – | 1 | 1 | 0 | – | Growth Rate (HEK-293T; [4]): 0; Growth Rate (HEK-293T; [8]): 0; Growth Rate (HEK-293T; [9]): 0
N#CC1(c2ccccn2)CCN(Cc2cc(C(=O)O)c(=O)n3ccccc23)CC1 [MSD-M1PAM] | 1 | 1 | 1 | 1 | 1 | 0 | 0 | 0 | 0 | 0 | – | 0 | 0 | 0 | 1 | – | 1 | – | 0 | 0 | Growth Rate (HEK-293T; [2]): 0; Growth Rate (U2OS; [2]): 1; Growth Rate (U2OS; [10]): 1
